The text below walks through data of patent US7842823B2, “Fluorogenic probes for reactive oxygen species” (The Regents of the University of California, priority 2005, dated 2010).

The conditions of series [1]: comparison probe; cited from earlier work.
The subject of series [2] is embryonic rat hippocampal neurons (E18). As to the kind of experiment: Fluorescence imaging of H2O2 in primary hippocampal neurons. The format is cell-based. The protocol:
Hippocampal primary cultures were prepared from embryonic day 18 (E18) rat embryos according to a previously reported protocol. Briefly, hippocampi were dissociated by treatment with trypsin for 20 min at 37° C. followed by washing. The neuronal cells were plated on glass coverslips (Carolina Biological, Burlington, N.C.) coated with poly-L-lysine (50 μg/ml, Sigma) and cultured in neurobasal medium supplemented with 2 mM Glutamax and 2% B-27 (Invitrogen). After 10 days in vitro, the cultures were washed with PBS, incubated with the probe in PBS, and imaged.
Finally, the successful use of the Peroxysensor probes for monitoring changes in intracellular H2O2 concentrations in mammalian cell lines using either confocal or two-photon microscopy led us to evaluate their utility in primary culture systems. […] Control neurons without PF1 and/or H2O2 treatment show no detectable fluorescence enhancements. These experiments confirm that PF1 can be used in living neurons to detect oxidative stress events.

The test system of series [3] is HEK cells. As to the kind of experiment: Confocal fluorescence imaging of H2O2 in live HEK cells. As to conditions: for cell viability during imaging: HEK cells after probe incubation and H2O2 treatment; for intracellular background fluorescence of the unreacted probe: live HEK cells, 5-10 μM probe, 5-10 min at 25° C., before H2O2; for intracellular fluorescence change upon addition of H2O2: probe-loaded live HEK cells, 10-100 μM H2O2. The protocol: (a) Fluorescence image of HEK cells incubated with 5 μM PF1 for 5 min at 25° C. (b) Fluorescence image of PF1-stained HEK cells treated with 100 μM H2O2 for 11 min at 25° C. Excitation was provided at 488 nm, and emission was collected in a window from 505 to 580 nm. Scale bar=27 μm.
(a) Fluorescence image of HEK cells incubated with 10 μM PR1 for 10 min at 25° C. (b) Fluorescence image of PR1-stained HEK cells treated with 100 μM H2O2 for 30 min at 25° C. Excitation was provided at 543 nm, and emission was collected in a window from 548 to 644 nm. Scale bar=18 μm.
HEK 293T cells were cultured in Dulbecco's Modified Eagle Medium (DMEM, Invitrogen, Carlsbad, Calif.) supplemented with 10% Fetal Bovine Serum (FBS, Invitrogen), glutamine (2 mM), and penicillin/streptomycin (50 μg/ml, Invitrogen). One day before imaging, cells were passed and plated on 18-mm glass coverslips coated with poly-L-lysine (50 μg/ml, Sigma, St. Louis, Mo.). Immediately before the experiments, cells were washed with PBS buffer, incubated with the probe in PBS, and imaged.
Confocal fluorescence imaging was performed with a Zeiss LSM510 META laser scanning microscope containing an Axioplan 2 MOT upright microscope and a 40× water-immersion objective lens. Excitation of PF1-loaded cells at 488 nm was carried out with an argon ion laser, and emission was collected in a window from 505 nm to 580 nm using a META detection system. Excitation of PR1-loaded cells at 543 nm was carried out with a HeNe laser, and emission was collected in a window from 548 nm to 644 nm using a META detector. PF1 or PR1 were incubated with live cell samples for 5 to 10 min. Addition of H2O2 (10 to 100 μM) to cell samples was performed directly on the microscope stage by bath application to the media.
The family of red-, green-, and blue-fluorescent reagents for the optical detection of H2O2 in living biological samples.

Series [4] is described as follows: Fluorescence response to various ROS (H2O2 selectivity). As to conditions: 20 mM HEPES, pH 7, 25° C.; for higher response for H2O2 over .OH: .OH from Fe2+ with H2O2; for higher response for H2O2 over .OtBu: .OtBu from Fe2+ with TBHP; for higher response for H2O2 over NO: NO delivered using SNOC. The protocol:
FIG. 7 is the fluorescence response of 5 μM PF1 to various ROS (10 mM O2^−, 100 μM for all other ROS). .OH and .Ot-Bu were generated by reaction of Fe^2+ with H2O2 or tert-butyl hydroperoxide (TBHP), respectively. NO was delivered using S-nitrosocysteine (SNOC). Spectra were acquired in 20 mM HEPES, pH 7, and all data were obtained after incubation with the appropriate ROS at 25° C. for 1 h. Collected emission was integrated between 460 and 700 nm (λexc=450 nm).
FIG. 8 is the fluorescence response of 5 μM PR1 to various ROS (10 mM O2^−, 100 μM for all other ROS). .OH and .O^tBu were generated by reaction of Fe^2+ with H2O2 or tert-butyl hydroperoxide (TBHP), respectively. NO was delivered using S-nitrosocysteine (SNOC). Spectra were acquired in 20 mM HEPES, pH 7, and all data were obtained after incubation with the appropriate ROS at 25° C. for 30 min. Collected emission was integrated between 570 and 800 nm (λexc=560 nm).
FIG. 9 is the fluorescence response of 10 μM PX1 to various ROS (10 mM O2^−, 100 μM for all other ROS). .OH and .Ot-Bu were generated by reaction of Fe^2+ with H2O2 or tert-butyl hydroperoxide (TBHP), respectively. NO was delivered using S-nitrosocysteine (SNOC). Spectra were acquired in 20 mM HEPES, pH 7, and all data were obtained after incubation with the appropriate ROS at 25° C. for 1 h. Collected emission was integrated between 370 and 600 nm (λexc=350 nm).
(§1) Millipore water was used to prepare all aqueous solutions. All spectroscopic measurements were performed in 20 mM HEPES buffer, pH 7. Absorption spectra were recorded using a Varian Cary 50 spectrophotometer (Walnut Creek, Calif.). Fluorescence spectra were recorded using a Photon Technology International Quanta Master 4 L-format scanning spectrofluorometer (Lawrenceville, N.J.) equipped with an LPS-220B 75-W xenon lamp and power supply, A-1010B lamp housing with integrated igniter, switchable 814 photon-counting/analog photomultiplier detection unit, and MD5020 motor driver. Samples for absorption and fluorescence measurements were contained in 1-cm×1-cm quartz cuvettes (1.4- or 3.5-mL volume, Starna, Atascadero, Calif.).
FIG. 7, FIG. 8 and FIG. 9 compare the relative reactivities of boronate-based PF1, PR1, and PX1, respectively, toward various ROS.

A short description of series [5]: Spectroscopic properties under simulated physiological conditions. Format: physicochemical. The settings on record: 20 mM HEPES buffer; for fluorescence of unreacted probe: pH 7, before H2O2. The method, then: as §1
(§2) The Peroxysensor reagents were evaluated under simulated physiological conditions (20 mM HEPES buffer, pH 7). […] FIG. 4, FIG. 5 and FIG. 6 show the fluorescence responses of PF1, PR1, and PX1, respectively, to H2O2.

Series [6] is described as follows: Fluorescence response of the Peroxysensor probes to H2O2 in buffer. The settings on record: 20 mM HEPES buffer, pH 7; H2O2 addition. The method, then: as §1, §2
Series [7] deals with HEK cells. As to the kind of experiment: Two-photon fluorescence imaging of H2O2 in live HEK cells. Format: cell-based. The method, then: Two-photon excitation was provided at 704 nm, and emission was collected in a window from 420 to 500 nm. Scale bar=18 μm
Two-photon fluorescence imaging of PX1 was carried out using an inverted Zeiss LSM510 Axiovert 200M microscope with a NeoFLUAR 40x/1.3 NA oil-immersion objective lens. Samples were excited by 704-nm pulses from a mode-locked Ti:Sapphire laser (Tsunami, SpectraPhysics, 120-150 fs pulse width, 80 MHz repetition rate). The emission light was filtered with a 80-nm wide bandpass filter centered at 460 nm (460BP40, Chroma) and detected with the non-descanned detector (NDD) of the LSM510.
Alternative methods were explored for applying the blue-fluorescent PX1 reporter toward intracellular H2O2 detection, reasoning that its short ultraviolet excitation maximum (˜350 nm) would promote interfering absorbance, scattering, and background autofluorescence from native cellular species. […] Whereas one-photon fluorescence microscopy uses a single photon to excite a fluorophore into its excited state, two-photon fluorescence microscopy uses two photons of lower energy light to generate a fluorophore excited state. […] Control cells without probe give the same fluorescence response, establishing that the observed background signal is from endogenous cellular species.

For the molecule `O=C(O)c1ccccc1C1c2cc(Cl)c(O)cc2Oc2cc(O)c(Cl)cc21` [DCFH, 2′,7′-dichlorodihydrofluorescein], in series [1], the “fluorescence increase by reaction with .OH or peroxynitrite (ONOO−)” value was “ca. 7000 fold”, the “fluorescence increase upon addition of H2O2” value is listed as 190 fold, the “fluorescence increase upon light-induced autoxidation” value is listed as 2000 fold and the “fluorescence increase with NO” value is recorded as 150 fold. For the same molecule, the “fluorescence increase with O2−” value in series [1] is given as 67 fold.
As to `CC1(C)OB(c2ccc3c(c2)Oc2cc(B4OC(C)(C)C(C)(C)O4)ccc2C32OC(=O)c3ccccc32)OC1(C)C` [PF1, 3′,6′-Bis(pinacolatoboron)fluoran], the “background fluorescence of the unreacted probe” value in series [2] (10 μM probe, 5 min at 25° C.) is given as “negligible background fluorescence”. In series [2] (300 μM H2O2 for 30 min at 25° C.), the “intracellular fluorescence change under simulated oxidative stress” value is listed as “notable increases in intracellular fluorescence”. In series [3], the “cell viability during imaging” value is recorded as “cells are viable throughout the imaging experiments”, the “intracellular background fluorescence of the unreacted probe” value (“intracellular background fluorescence” below) is “negligible intracellular background fluorescence” and the “intracellular fluorescence change upon addition of H2O2” value is given as “prompt increases in intracellular green fluorescence”. Further, in series [4] (100 μM ROS), the “higher response for H2O2 over .OH” value is listed as over 3 fold and the “higher response for H2O2 over .OtBu” value is over 15 fold. The “fluorescence of unreacted probe” value in series [5] was “non-fluorescent”.
Take `CC1(C)OB(c2ccc3c(c2)Oc2cc(B4OC(C)(C)C(C)(C)O4)ccc2N3)OC1(C)C` [PR1, 3,7-Bis(pinacolatoboron)phenoxazine]: in series [3], the “cell viability during imaging” value was “cells are viable throughout the experiments”, the “intracellular background fluorescence” value is “virtually no background fluorescence” and the “intracellular fluorescence change upon addition of H2O2” value is on record as “Striking increases in intracellular red fluorescence”. For the same molecule, in series [4] (100 μM ROS), the “higher response for H2O2 over .OH” value is over 200 fold, the “higher response for H2O2 over .OtBu” value is over 200 fold and the “higher response for H2O2 over NO” value is reported as over 200 fold. The “higher response for H2O2 over O2−” value in series [4] (10 mM O2−, 100 μM H2O2) was over 1000 fold. In addition, the “fluorescence of unreacted probe” value in series [5] was “non-fluorescent”.
Regarding `CC1(C)OB(c2ccc3c(=O)c4ccc(B5OC(C)(C)C(C)(C)O5)cc4oc3c2)OC1(C)C` [PX1, 3,6-Bis(pinacolatoboron)xanthone], the “increase in integrated fluorescence intensity (dynamic range) upon reaction with H2O2” value in series [6] came out at 52 fold. In series [7] (live HEK cells, 10 μM probe, 2-3 min at 25° C., two-photon excitation 704 nm), the “intracellular background fluorescence” value is given as “minimal intracellular background fluorescence”. Moreover, in series [7] (probe-stained HEK cells, 100 μM H2O2, two-photon excitation 704 nm), the “intracellular fluorescence change upon addition of H2O2” value is “Prompt increases in intracellular blue fluorescence”. For the same molecule, in series [4] (100 μM ROS), the “higher response for H2O2 over NO” value is listed as “ca. 6 fold” and the “higher response for H2O2 over tert-butyl hydroperoxide (TBHP)” value was over 100 fold. Moreover, in series [5] (pH 7), the “emission maximum of unreacted probe” value is 400 nm and the ultraviolet absorption maximum is 350 nm. Moreover, the “fluorescence of unreacted probe” value in series [5] is reported as “weak fluorescence”. Further, in series [5] (pH 7, 350 nm), the “extinction coefficient ε at absorption maximum” value is 4700 M⁻¹ cm⁻¹.
